Source: patent US20120029187A1, “HALOALKYLSULFONANILIDE DERIVATIVE” (Nissan Chemical Industries, Ltd., priority 2009, published 2012)

Key:
Type in all cases: in vivo
[1] = test system: barnyardgrass; assay: Test Example 1: herbicidal effects in preemergence treatment under submerged conditions; conditions: dose 2.52 g/a
How it was run: (§1)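 Alluvial soil was flooded to 4 cm, sown with barnyardgrass, bulrush and ducksalad, and planted with 2.5-leaf rice seedlings. On the seeding day, water-diluted emulsifiable concentrates were applied to the water surface at set doses (g/a). After three weeks in a 25 to 30° C. greenhouse, mortality was scored 0–5.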

[2] = test system: bulrush; assay: as above; conditions: dose 2.52 g/a
How it was run: as §1

[3] = test system: ducksalad; assay: as above; conditions: dose 2.52 g/a
How it was run: as §1

[4] = test system: transplanted rice; assay: Test Example 1: preemergence treatment under submerged conditions, effect on crop; conditions: dose 2.52 g/a
How it was run: as §1

[5] = test system: barnyardgrass; assay: Test Example 2: herbicidal effects during the vegetation period under submerged conditions; conditions: treatment during the vegetation period under submerged conditions; dose 2.52 g/a
How it was run: (§2)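 Barnyardgrass, bulrush and ducksalad were co-sown in alluvial soil flooded to 4 cm and grown in a greenhouse at 25 to 30° C. At the 1- or 2-leaf stage, water-diluted emulsifiable concentrates went onto the water surface at set doses (g/a). Herbicidal effect was scored three weeks later on a graded scale.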

[6] = test system: bulrush; assay: as above; conditions: treatment during the vegetation period under submerged conditions; dose 2.52 g/a
How it was run: as §2

[7] = test system: ducksalad; assay: as above; conditions: treatment during the vegetation period under submerged conditions; dose 2.52 g/a
How it was run: as §2

[8] = test system: Italian ryegrass; assay: Test Example 3: herbicidal effects in soil treatment; conditions: dose 3.2 g/a
How it was run: (§3)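 Seeds were sown in sterilized diluvial soil and covered with about 1.5 cm of soil. Compounds, formulated as emulsifiable concentrates and diluted with water, were sprayed evenly over the soil surface at set doses in g/a. Herbicidal effect was scored on a rating scale three weeks later.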

[9] = test system: barnyardgrass; assay: as above; conditions: dose 3.2 g/a
How it was run: as §3

[10] = test system: common chickweed; assay: as above; conditions: dose 3.2 g/a
How it was run: as §3

[11] = test system: common lambsquater; assay: as above; conditions: dose 3.2 g/a
How it was run: as §3

[12] = test system: common ragweed; assay: as above; conditions: dose 3.2 g/a
How it was run: as §3

[13] = test system: giant foxtail; assay: as above; conditions: dose 3.2 g/a
How it was run: as §3

[14] = test system: large crabgrass; assay: as above; conditions: dose 3.2 g/a
How it was run: as §3

[15] = test system: posumbu knotweed; assay: as above; conditions: dose 3.2 g/a
How it was run: as §3

[16] = test system: redroot pigweed; assay: as above; conditions: dose 3.2 g/a
How it was run: as §3

[17] = test system: water foxtail; assay: as above; conditions: dose 3.2 g/a
How it was run: as §3

[18] = test system: wild oat; assay: as above; conditions: dose 3.2 g/a
How it was run: as §3

[19] = test system: Italian ryegrass; assay: Test Example 4: herbicidal effect in foliage treatment; conditions: dose 3.2 g/a, three weeks after application
How it was run: (§4)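 Doses are given in grams per are of applied compound, sprayed as water-diluted emulsifiable concentrate onto foliage of 14-day-old plants grown at 25 to 30° C. Herbicidal activity was assessed visually on a rating scale after three weeks.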

[20] = test system: barnyardgrass; assay: as above; conditions: dose 3.2 g/a, three weeks after application
How it was run: as §4

[21] = test system: beadstraw; assay: as above; conditions: dose 3.2 g/a, three weeks after application
How it was run: as §4

[22] = test system: common chickweed; assay: as above; conditions: dose 3.2 g/a, three weeks after application
How it was run: as §4

[23] = test system: common lambsquater; assay: as above; conditions: dose 3.2 g/a, three weeks after application
How it was run: as §4

[24] = test system: common ragweed; assay: as above; conditions: dose 3.2 g/a, three weeks after application
How it was run: as §4

[25] = test system: giant foxtail; assay: as above; conditions: dose 3.2 g/a, three weeks after application
How it was run: as §4

[26] = test system: large crabgrass; assay: as above; conditions: dose 3.2 g/a, three weeks after application
How it was run: as §4

[27] = test system: posumbu knotweed; assay: as above; conditions: dose 3.2 g/a, three weeks after application
How it was run: as §4

[28] = test system: redroot pigweed; assay: as above; conditions: dose 3.2 g/a, three weeks after application
How it was run: as §4

[29] = test system: velvetleaf; assay: as above; conditions: dose 3.2 g/a, three weeks after application
How it was run: as §4

[30] = test system: water foxtail; assay: as above; conditions: dose 3.2 g/a, three weeks after application
How it was run: as §4

[31] = test system: wild oat; assay: as above; conditions: dose 3.2 g/a, three weeks after application
How it was run: as §4

[32] = test system: velvetleaf; assay: Test Example 3: herbicidal effects in soil treatment; conditions: dose 3.2 g/a
How it was run: as §3

Compound: O=C1CC(c2ccccc2)OCN1Cc1ccccc1N(C(=O)OCCCl)S(=O)(=O)C(F)(F)F (centres unmarked) [II-12]
- A: barnyardgrass, herbicidal effect (evaluation scale 0-5) [1]: 5 (mortality of 90% or above (nearly complete death))
- B: bulrush, herbicidal effect (evaluation scale 0-5) [2]: 5 (mortality of 90% or above (nearly complete death))
- C: ducksalad, herbicidal effect (evaluation scale 0-5) [3]: 5 (mortality of 90% or above (nearly complete death))
- a: transplanted rice, effect on crop (evaluation scale 0-5) [4]: 0 (mortality of less than 5% (almost ineffective))
- A: barnyardgrass, herbicidal effect (evaluation scale 0-5) [5]: 4 (mortality of at least 70% and less than 90%)
- B: bulrush, herbicidal effect (evaluation scale 0-5) [6]: 5 (mortality of 90% or above (nearly complete death))
- C: ducksalad, herbicidal effect (evaluation scale 0-5) [7]: 5 (mortality of 90% or above (nearly complete death))
- H: Italian ryegrass, herbicidal effect (evaluation scale 0-5) [8]: 4 (mortality of at least 70% and less than 90%)
- A: barnyardgrass, herbicidal effect (evaluation scale 0-5) [9]: 4 (mortality of at least 70% and less than 90%)
- N: common chickweed, herbicidal effect (evaluation scale 0-5) [10]: 3 (mortality of at least 40% and less than 70%)
- L: common lambsquater, herbicidal effect (evaluation scale 0-5) [11]: 0 (mortality of less than 5% (almost ineffective))
- J: common ragweed, herbicidal effect (evaluation scale 0-5) [12]: 0 (mortality of less than 5% (almost ineffective))
- E: giant foxtail, herbicidal effect (evaluation scale 0-5) [13]: 5 (mortality of 90% or above (nearly complete death))
- D: large crabgrass, herbicidal effect (evaluation scale 0-5) [14]: 4 (mortality of at least 70% and less than 90%)
- M: posumbu knotweed, herbicidal effect (evaluation scale 0-5) [15]: 0 (mortality of less than 5% (almost ineffective))
- K: redroot pigweed, herbicidal effect (evaluation scale 0-5) [16]: 0 (mortality of less than 5% (almost ineffective))
- G: water foxtail, herbicidal effect (evaluation scale 0-5) [17]: 5 (mortality of 90% or above (nearly complete death))
- F: wild oat, herbicidal effect (evaluation scale 0-5) [18]: 0 (mortality of less than 5% (almost ineffective))
- H: Italian ryegrass, herbicidal effect [19]: 0 (mortality of less than 5% (almost ineffective))
- A: barnyardgrass, herbicidal effect [20]: 5 (mortality of 90% or above (nearly complete death))
- O: beadstraw, herbicidal effect [21]: 4 (mortality of at least 70% and less than 90%)
- N: common chickweed, herbicidal effect [22]: 3 (mortality of at least 40% and less than 70%)
- L: common lambsquater, herbicidal effect [23]: 0 (mortality of less than 5% (almost ineffective))
- J: common ragweed, herbicidal effect [24]: 4 (mortality of at least 70% and less than 90%)
- E: giant foxtail, herbicidal effect [25]: 3 (mortality of at least 40% and less than 70%)
- D: large crabgrass, herbicidal effect [26]: 2 (mortality of at least 20% and less than 40%)
- M: posumbu knotweed, herbicidal effect [27]: 1 (mortality of at least 5% and less than 20%)
- K: redroot pigweed, herbicidal effect [28]: 0 (mortality of less than 5% (almost ineffective))
- I: velvetleaf, herbicidal effect [29]: 3 (mortality of at least 40% and less than 70%)
- G: water foxtail, herbicidal effect [30]: 4 (mortality of at least 70% and less than 90%)
- F: wild oat, herbicidal effect [31]: 0 (mortality of less than 5% (almost ineffective))

Compound: CC(C)COC(=O)N(c1ccccc1CN1COC(c2ccccc2)CC1=O)S(=O)(=O)C(F)(F)F (centres unmarked) [II-13]
- A: barnyardgrass, herbicidal effect (evaluation scale 0-5) [1]: 5 (mortality of 90% or above (nearly complete death))
- B: bulrush, herbicidal effect (evaluation scale 0-5) [2]: 5 (mortality of 90% or above (nearly complete death))
- C: ducksalad, herbicidal effect (evaluation scale 0-5) [3]: 5 (mortality of 90% or above (nearly complete death))
- a: transplanted rice, effect on crop (evaluation scale 0-5) [4]: 0 (mortality of less than 5% (almost ineffective))
- A: barnyardgrass, herbicidal effect (evaluation scale 0-5) [5]: 5 (mortality of 90% or above (nearly complete death))
- B: bulrush, herbicidal effect (evaluation scale 0-5) [6]: 5 (mortality of 90% or above (nearly complete death))
- C: ducksalad, herbicidal effect (evaluation scale 0-5) [7]: 5 (mortality of 90% or above (nearly complete death))
- H: Italian ryegrass, herbicidal effect (evaluation scale 0-5) [8]: 0 (mortality of less than 5% (almost ineffective))
- A: barnyardgrass, herbicidal effect (evaluation scale 0-5) [9]: 3 (mortality of at least 40% and less than 70%)
- N: common chickweed, herbicidal effect (evaluation scale 0-5) [10]: 0 (mortality of less than 5% (almost ineffective))
- L: common lambsquater, herbicidal effect (evaluation scale 0-5) [11]: 0 (mortality of less than 5% (almost ineffective))
- J: common ragweed, herbicidal effect (evaluation scale 0-5) [12]: 0 (mortality of less than 5% (almost ineffective))
- E: giant foxtail, herbicidal effect (evaluation scale 0-5) [13]: 4 (mortality of at least 70% and less than 90%)
- D: large crabgrass, herbicidal effect (evaluation scale 0-5) [14]: 2 (mortality of at least 20% and less than 40%)
- K: redroot pigweed, herbicidal effect (evaluation scale 0-5) [16]: 0 (mortality of less than 5% (almost ineffective))
- I: velvetleaf, herbicidal effect (evaluation scale 0-5) [32]: 0 (mortality of less than 5% (almost ineffective))
- G: water foxtail, herbicidal effect (evaluation scale 0-5) [17]: 0 (mortality of less than 5% (almost ineffective))
- F: wild oat, herbicidal effect (evaluation scale 0-5) [18]: 0 (mortality of less than 5% (almost ineffective))
- H: Italian ryegrass, herbicidal effect [19]: 0 (mortality of less than 5% (almost ineffective))
- A: barnyardgrass, herbicidal effect [20]: 2 (mortality of at least 20% and less than 40%)
- O: beadstraw, herbicidal effect [21]: 4 (mortality of at least 70% and less than 90%)
- N: common chickweed, herbicidal effect [22]: 3 (mortality of at least 40% and less than 70%)
- L: common lambsquater, herbicidal effect [23]: 0 (mortality of less than 5% (almost ineffective))
- J: common ragweed, herbicidal effect [24]: 4 (mortality of at least 70% and less than 90%)
- E: giant foxtail, herbicidal effect [25]: 0 (mortality of less than 5% (almost ineffective))
- D: large crabgrass, herbicidal effect [26]: 2 (mortality of at least 20% and less than 40%)
- M: posumbu knotweed, herbicidal effect [27]: 1 (mortality of at least 5% and less than 20%)
- K: redroot pigweed, herbicidal effect [28]: 0 (mortality of less than 5% (almost ineffective))
- I: velvetleaf, herbicidal effect [29]: 0 (mortality of less than 5% (almost ineffective))
- G: water foxtail, herbicidal effect [30]: 0 (mortality of less than 5% (almost ineffective))
- F: wild oat, herbicidal effect [31]: 0 (mortality of less than 5% (almost ineffective))
